Measurements from patent publication US6423694B1, “Method of treating otitis media with uridine triphosphates and related compounds” (Inspire Pharmaceuticals, Inc., priority 1996, dated 2002).

Columns and labels:
lung epithelial cells = conditions: Boucher et al. 1995, Gheber et al. 1995; cited from earlier work
[1] = test system: lung epithelial cells of cystic fibrosis patients; conditions: U.S. Pat. No. 5,292,498; cited from earlier work
otitis media = test: Treatment of otitis media in children (Example 1); type: in vivo, human; conditions: children with otitis media; nasal drops or nasal spray twice daily, 10^-7 to 10^-2 moles/liter, with antibiotic therapy
Description: Uridine 5′-triphosphate (UTP) is administered to children diagnosed with otitis media (OM). UTP is administered via nasal drops or nasal spray, twice daily, for a total of 5-10 days. The concentration of UTP is in the range of 10^−7 to 10^−2 moles/liter. Treatment with UTP begins as soon as OM is diagnosed and antibiotic therapy is initiated. The length of treatment for each patient is up to one month (28 days); the preferable length of treatment is one week (7 days). Effectiveness of UTP in eliminating middle ear fluid is assessed by several methods including: pneumatic otoscopy (to diagnose fluid in the middle ear and to evaluate the status of eardrum); tympanometry (to evaluate compliance of tympanic membrane/eardrum and to estimate middle ear pressure); acoustic reflectometry (to diagnose presence of air or fluid in the middle ear); and hearing evaluation tests.

| SMILES | ciliary beat frequency (lung epithelial cells) | chloride and water secretion [1] | number of days that middle ear fluid is present (otitis media) | number of days that symptoms such as pain or hearing impairment are experienced (otitis media) |
| --- | --- | --- | --- | --- |
| Nc1ncnc2c1ncn2[C@@H]1O[C@H](COP(=O)(O)OP(=O)(O)OP(=O)(O)O)[C@@H](O)[C@H]1O [ATP, adenosine 5′-triphosphate] | stimulate the ciliary beat frequency | induce chloride and water secretion |  |  |
| O=c1ccn([C@@H]2O[C@H](COP(=O)(O)OP(=O)(O)OP(=O)(O)O)[C@@H](O)[C@H]2O)c(=O)[nH]1 [UTP, uridine 5′-triphosphate] | stimulate the ciliary beat frequency | induce chloride and water secretion | decrease in the number of days that middle ear fluid is present | decrease in the number of days that symptoms such as pain or hearing impairment are experienced |
